TGI and GI50 data for 13 compounds are collected here from PubChem BioAssay (NCI).

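Where inhibition never reached the appropriate level, the endpoint shown equals the highest concentration tested. Otherwise, values were interpolated linearly from a five-concentration, 48-hour dose response in 96-well plates. GI50 marks 50% less growth. TGI denotes the concentration required for complete inhibition of growth.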

Test systems include OVCAR-4 ovarian; SNB-75 CNS; HOP-62 NSCLC; HL-60(TB) leukemia; SK-OV-3 ovarian; U251 CNS; M14 melanoma; TK-10 renal; SF-268 CNS; COLO 205 colon.
Assay in all cases: growth of human tumour cells (NCI), 48 h

For `COC(=O)C1=C(O)C(C(=O)OC)[C@]2(O)[C@H](C(=O)OC)[C@H]1C[C@@H](c1ccc(Cl)cc1)[C@H]2C(=O)OC` (some centres undefined), the TGI in the assay on OVCAR-4 ovarian was > 100 µM; in the assay with SNB-75 CNS it was 38.7 µM; in the assay with HOP-62 NSCLC, 24 µM; with HL-60(TB) leukemia, 12.9 µM; in the assay with SK-OV-3 ovarian, 23.4 µM; in the assay with U251 CNS, 20.9 µM. The TGI in the assay with M14 melanoma came to 19.5 µM; with TK-10 renal, 33.5 µM; with SF-268 CNS, 29 µM; in the assay with COLO 205 colon, 25.1 µM.

For `COC(=O)c1cc(C)ccc1C1CN=NC12Cc1ccc(C)cc1C2=O` (centres undefined), the TGI with OVCAR-4 ovarian is > 100 µM; in the assay with SNB-75 CNS, > 100 µM; in the assay on HOP-62 NSCLC, > 100 µM; with HL-60(TB) leukemia it was 37.5 µM; in the assay with SK-OV-3 ovarian, > 100 µM; in the assay with U251 CNS, > 100 µM. For the same compound, the TGI in the assay on M14 melanoma was > 100 µM; in the assay on TK-10 renal, > 100 µM; in the assay on SF-268 CNS it was > 100 µM; in the assay on COLO 205 colon, 29.3 µM.

Turning to `COc1ccccc1NC(=S)Nc1cc(C)cc(C)n1`, the TGI in the assay on OVCAR-4 ovarian, in the assay on SNB-75 CNS, with HOP-62 NSCLC, in the assay with HL-60(TB) leukemia, in the assay on SK-OV-3 ovarian and with U251 CNS was > 100 µM throughout. Moreover, the TGI in the assay on M14 melanoma, in the assay on TK-10 renal, in the assay with SF-268 CNS and in the assay with COLO 205 colon was > 100 µM each time.

As for `CCC/C=C/c1cc2c(cc1O)CC[C@@H]1[C@@H]2CC[C@]2(C)[C@@H](O)CC[C@@H]12`, the TGI in the assay on OVCAR-4 ovarian was 44.9 µM; with SNB-75 CNS, 34.6 µM; with HOP-62 NSCLC, 42.6 µM; in the assay on HL-60(TB) leukemia it was 27.3 µM; with SK-OV-3 ovarian, 63.2 µM; with U251 CNS, 30.6 µM. Also, the TGI in the assay on M14 melanoma turned out to be 37.3 µM; with TK-10 renal, 38 µM; in the assay with SF-268 CNS, 42.6 µM; in the assay with COLO 205 colon, 36.5 µM. In addition, the GI50 in the assay on HOP-62 NSCLC was 21.9 µM.

For the compound `CCN(CC)CCn1nc(N)c2nc3ccccc3nc21`, the TGI in the assay on OVCAR-4 ovarian, in the assay on SNB-75 CNS, in the assay with HOP-62 NSCLC, in the assay on HL-60(TB) leukemia, in the assay with SK-OV-3 ovarian and in the assay on U251 CNS was > 100 µM each time. The TGI in the assay on M14 melanoma, in the assay on TK-10 renal and in the assay with SF-268 CNS was > 100 µM throughout.

As to `Cc1ccc([N+](=O)[O-])cc1S(=O)(=O)Nc1ccc(C2=NN(c3ccc([N+](=O)[O-])cc3[N+](=O)[O-])C(c3cccs3)C2)cc1` (centres undefined), the TGI in the assay on OVCAR-4 ovarian is 77.3 µM; in the assay with SNB-75 CNS, 81.3 µM; with HOP-62 NSCLC it was 58.3 µM; in the assay on HL-60(TB) leukemia, 62.9 µM; in the assay with SK-OV-3 ovarian, 77.9 µM; with U251 CNS, 72.3 µM. Besides, the TGI is 32.9 µM in the assay with M14 melanoma, 81.7 µM in the assay on TK-10 renal, 69.9 µM in the assay with SF-268 CNS and 54.5 µM in the assay with COLO 205 colon.

Take `CC(=O)c1sc2c(c1OC(=O)c1ccco1)c(=O)n(-c1ccccc1)c(=S)n2-c1ccccc1`: the TGI in the assay with OVCAR-4 ovarian is 95 µM; in the assay with SNB-75 CNS it was 78.1 µM; with HOP-62 NSCLC, 66.8 µM; in the assay on HL-60(TB) leukemia it was 45 µM; in the assay with SK-OV-3 ovarian, 55.3 µM; with U251 CNS it was 88.1 µM. Moreover, the TGI in the assay with M14 melanoma amounted to 28.3 µM; in the assay with TK-10 renal it was 92.6 µM; with SF-268 CNS, 87.2 µM; in the assay with COLO 205 colon, 37.9 µM.

Turning to `Cc1cc2c(cc1C(=O)CCC(=O)O)CC1(C2)Cc2cc(C)c(C(=O)CCC(=O)O)cc2C1`, the TGI in the assay on OVCAR-4 ovarian, with SNB-75 CNS, in the assay on HOP-62 NSCLC, in the assay on HL-60(TB) leukemia, in the assay with SK-OV-3 ovarian and with U251 CNS was > 100 µM in each case. The TGI in the assay on M14 melanoma, in the assay with TK-10 renal, in the assay on SF-268 CNS and in the assay with COLO 205 colon was > 100 µM each time.

`CCOC(=O)C1(Cc2ccccc2)C=CN(C(=O)c2ccccc2)C=C1`: the TGI in the assay on OVCAR-4 ovarian is > 100 µM; with SNB-75 CNS it was 64.2 µM; in the assay with HOP-62 NSCLC, > 100 µM; in the assay on HL-60(TB) leukemia, 45.7 µM; in the assay on SK-OV-3 ovarian it was > 100 µM; with U251 CNS, > 100 µM. Besides, the TGI with M14 melanoma was > 100 µM; in the assay with TK-10 renal, 88.3 µM; in the assay on SF-268 CNS, > 100 µM; in the assay on COLO 205 colon, 37.5 µM.

Turning to `c1ccc(-c2cn3c(nc4ccccc43)c(-c3ccccc3)n2)cc1`, the TGI in the assay with OVCAR-4 ovarian is > 26 µM; in the assay on SNB-75 CNS, > 32.9 µM; with HOP-62 NSCLC, 27.9 µM; in the assay with HL-60(TB) leukemia it was > 100 µM; in the assay on SK-OV-3 ovarian, 38.4 µM; in the assay with U251 CNS it was 32.1 µM. For the same compound, the TGI with M14 melanoma was > 100 µM; in the assay on TK-10 renal, > 93.4 µM; in the assay with SF-268 CNS, > 100 µM; with COLO 205 colon, > 100 µM.

As for `OC1(c2ccccc2)C2CCN(CC2)C1CN1CCOCC1` (centres undefined), the TGI in the assay with OVCAR-4 ovarian, in the assay on SNB-75 CNS, in the assay on HOP-62 NSCLC, with HL-60(TB) leukemia, in the assay on SK-OV-3 ovarian and in the assay on U251 CNS was > 100 µM throughout. Moreover, the TGI with M14 melanoma, in the assay with TK-10 renal, with SF-268 CNS and in the assay with COLO 205 colon was > 100 µM in each case.

For `CCOC(=O)c1cc2c([nH]1)c(O)cc1c2ccn1Cc1ccccc1`, the TGI with OVCAR-4 ovarian came out at 35.4 µM; with SNB-75 CNS it was 50.2 µM; in the assay on HOP-62 NSCLC, 38.7 µM; in the assay on HL-60(TB) leukemia, 33.9 µM; in the assay on SK-OV-3 ovarian, 39.5 µM; in the assay on U251 CNS it was 31.6 µM. Besides, the TGI in the assay with M14 melanoma was determined as 47.5 µM; in the assay with SF-268 CNS, 51.3 µM; with COLO 205 colon, 39.8 µM.

As to `Ic1ccc2c(c1)N(c1ccccc1)c1cc(N=c3ccc4nc5ccc(I)cc5n(-c5ccccc5)c-4c3)ccc1N2`, the TGI is > 100 µM in the assay with OVCAR-4 ovarian; > 100 µM in the assay on SNB-75 CNS; > 100 µM in the assay with HOP-62 NSCLC; 58.2 µM with HL-60(TB) leukemia; > 100 µM in the assay on SK-OV-3 ovarian; > 100 µM with U251 CNS. For the same compound, the TGI in the assay on M14 melanoma was 80.1 µM; in the assay with TK-10 renal, > 100 µM; with SF-268 CNS, > 100 µM; in the assay with COLO 205 colon, 71.5 µM.
